Source: patent US8748369B2, “Use of targeted nitroxide agents in bone healing” (University of Pittsburgh-Of the Commonwealth System of …, priority 2009, dated 2014)
Where a SMILES comes first, the peptide text is derived from it. [ ]: non-standard residue; d: D form. The star is where a group is joined. NH(TEMPO-4-yl) = CC1(C)CC(N*)CC(C)(C)N1[O]; Orn = NCCC[C@H](N)C(=O)O; Cbz = O=C(OCc1ccccc1)*; Boc = CC(C)(C)OC(=O)*

Assays:
Solubility in water = assay type: physicochemical
Description: All compositions are sterile filtered (e.g.) using a 0.2 micron filter (non sterile). • A. 0.1% DMSO 99.9% and RMPI 1640. Comments: with the low water solubility of JP4-039, DMSO is used in vitro experiments since it is a universal solvent which has been used in radiation biology experiments without any toxic effects. • B. 10% CrEL(Cremophor EL), 10% ethanol and 80% DI water. […] This formula dissolves the JP4-039. • C. Suspension of JP4-039 in F14 emulsion: Comments: F14 is a mixture of sesame oil, egg-phosphatidyl choline, Tween 80, and Span85 at ratios of 1:0.5:0.25:0.25 w/w, respectively. […] Comments: Sesame Seed Oil (100 mg/ml), Soy Phosphatidyl […] (50 mg/ml), JP4-039 (2 mg/ml), and Phosphate Buffered Saline. • Low dose (JP4-039): 5 mg/kg, 0.5 mg/ml. • Medium dose (JP4-039): 10 mg.kg, 1.0 mg/ml. • High dose (JP4-039): 20 mg/kg, 2.0 mg/ml. • Placebo/Vehicle (JP4-039): 0 mg/kg, 0 ing/ml • Exemplary dose (mouse): 200 μl of volume • E. JP4-039 dissolved in a solution of 45% 2-hydroxypropyl-β-cyclodextrin and 55% water. Comments: Cyclodextrins have a hydrophobic interior which compounds such as JP4-039 can complex in a rapid and reversible reaction. P-cyclodextrins have a cavity with an inner diameter of approximately 7.5 Å which is well suited for JP4-039.

NOD/SCID mice = test: Proposed: human marrow stromal cell seeding into irradiated limbs of NOD/SCID mice; assay type: in vivo, mouse; details: MnSOD-PL prior to cell infusion; JP4-039 daily after cell transplantation
Description: The following can be used to select and optimize the best GS-nitroxide JP4-039 (radiation damage mitigator drug) that can enhance human bone marrow stromal cell and fresh human stromal cell line seeding efficiency into irradiated limbs of NOD/SCID mice. MnSOD-overexpressing cells are a positive control.
A. Experiments with KM101-MnSOD/ds-red (control KM101-ds-red) clonal cell lines. Groups of 12 NOD/SCID mice receive 300 cGy total body irradiation (low dose leg) and a 1000 cGy boost to the left hind leg (high dose leg), then 24 hours later intravenous injection of 1×10^5 or 1×10^6 cells of each cell line (groups 1 and 2). Group 3 is mice that receive MnSOD-PL intravenously 24 hours prior to irradiation and then injection of KM101-MnSOD/ds-red. […] This experiment may be conducted essentially as described above (A), with all groups, but with a sub-group receiving JP4-039 (24 hours) after radiation (same day as cell lines are injected, or a sub-group receiving intraperitoneal JP4-039 (daily or weekly after cell line transplantation). Cells may be explanted from the high dose and low dose irradiated femurs at days 7, 14, 21, and cultured in vitro for human stromal colony forming progenitor cells (CFU-F). The percent and total number of human cells entering the high dose and low dose irradiated limbs can be quantitated by cell sorting for ds-red. […]

mouse embryonic cells = test: Gamma-irradiation dose survival curves of mouse embryonic cells; assay type: cell-based; details: 20 μM pre- (10-min) or post-treated (1-h)
Procedure: Cells were plated in 35-mm Petri dishes with 2 ml culture medium at a density between 100 and 1000 cells per dish. Cells were treated with GS-nitroxide (XJB-5-125) either before (10-min) or after (1-h) γ-irradiation. XJB-5-125 was removed from the medium 4-h post-irradiation. Colonies were fixed and stained with 0.25% crystal violet and 10% formalin (35% v/v) in 80% methanol for 30 min after a 9-day incubation period, and those of ≧50 cells were counted as survivors. The surviving fraction was calculated as the plating efficiency of the samples relative to that of the control.
Cells were pre- (10-min) or post-treated (1-h) with XJB-5-125 (20 μM), which was removed after 4-h incubation period. The surviving fraction was calculated as the plating efficiency of the samples relative to that of the control. The data was fitted to a single-hit multitarget model using SigmaPlot 9.0 (Systat Software). Data presented are the mean±S.E. (n=3).

[1] = tested on: 32D cl 3 murine hematopoietic cells; test: Irradiation survival curves of 32D cl 3 cells; assay type: cell-based, mouse; details: cells incubated in compound
Procedure: FIG. 16 illustrates the effect of GS conjugated nitroxide, XJB-5-125, on gamma-irradiation dose survival curves of 32D cl 3 murine hematopoietic cells.
Irradiation survival curves were performed on cells from the 32D cl 3 mouse hematopoietic progenitor cell line, incubated in 10 μM JP4-039 for 1 hour before irradiation, or plated in methycellulose containing 10 μM JP4-030 after irradiation. Cells were irradiated from 0 to 8 Gy, plated in 0.8% methycellulose containing media, and incubated for 7 days at 37° C. Colonies of greater than 50 cells were counted and data analyzed by linear quadratic and single-hit, multi-target models.

In the case of CC(C)C[C@@H](/C=C/CC(=O)NC1CC(C)(C)N([O])C(C)(C)C1)NC(=O)OC(C)(C)C [JP4-039, (S,E)-5-(tert-Butoxycarbonylamino)-7-methyloct-3-enoic acid-TEMPO], the solubility in water (Solubility in water) is reported as “low solubility in water” and the “engraftment of KM101 stromal cell lines” value (NOD/SCID mice) is reported as “facilitate improved stability of engraftment”.

For CC(C)C[C@H](NC(=O)OC(C)(C)C)C(=O)N[C@H](Cc1ccccc1)C(=O)N1CCC[C@H]1C(=O)N[C@H](C(=O)N[C@@H](CCCNC(=O)OCc1ccccc1)C(=O)NC1CC(C)(C)N([O])C(C)(C)C1)C(C)C [XJB-5-125] (Boc-L[dF]PV[Orn](Cbz)-{NH(TEMPO-4-yl)}), the “radiation mitigation and protection (FIG. 15 survival curves)” value (mouse embryonic cells) was “radiation mitigator as well as a protector”, the “Do of gamma-irradiation survival curve” value [1] was 1.138 Gy and the “n (shoulder on the survival curve)” value [1] was 18.24.
